The source of these data is ChEMBL document CHEMBL1201862, “PubChem BioAssay data set” (2004).

Some test systems named below: KM12; UACC-62; OVCAR-5; K562; RXF 393; SF-295; HT-29; EKVX; CCRF-CEM; UACC-257; CAKI-1; HCT-15; SN12C; MDA-MB-435; NCI-H226; HOP-62; MCF7; LOX IMVI; SF-268; OVCAR-8.
Experiment in all cases: NCI anticancer screen, dose series, 48 h

The structures appear in SMILES notation.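 Step 1: Grow cells in 96-well plates. Step 2: Expose to compound for 48 hours at 5 concentrations. Step 3: Interpolate endpoints linearly; if unreached, use highest concentration. GI50 marks 50% less growth.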 Active and inactive are the calls of the source. Rule as the data show it: active = GI50 up to about 1.1 µM and inactive = higher. Where only a bound is given, the exact number is not on record here.

For the compound `CCOC(=O)c1c(N2CCCC2)[nH]c(=O)c(C(c2ccco2)c2c(O)c(C(=O)OCC)c(N3CCCC3)[nH]c2=O)c1O`, the GI50 was > 100 µM (inactive) in the assay with KM12; > 100 µM (inactive) in the assay on UACC-62; 67.9 µM (inactive) in the assay with OVCAR-5; > 100 µM (inactive) with K562; 54.5 µM (inactive) in the assay with RXF 393; 40.3 µM (inactive) in the assay on SF-295. Moreover, the GI50 is > 100 µM (inactive) with HT-29; > 100 µM (inactive) in the assay on EKVX; > 100 µM (inactive) in the assay with CCRF-CEM; > 100 µM (inactive) in the assay on UACC-257; > 100 µM (inactive) in the assay with CAKI-1; over 100 µM with HCT-15. Besides, the GI50 with SN12C is > 100 µM (inactive); with MDA-MB-435, > 100 µM (inactive); in the assay on NCI-H226, > 100 µM (inactive); in the assay with HOP-62, 50.6 µM (inactive); in the assay on MCF7 it was > 100 µM (inactive); with LOX IMVI it was 37.4 µM (inactive). The GI50 with SF-268 was 85.3 µM (inactive); in the assay with OVCAR-8, 92.9 µM (inactive).

Take `Cc1nc(-c2cc3ccccc3oc2=O)cs1`: the GI50 in the assay with KM12 is > 100 µM (inactive); with UACC-62, 31.3 µM (inactive); in the assay on OVCAR-5, > 100 µM (inactive); in the assay with K562, > 100 µM (inactive); in the assay on RXF 393, 38.2 µM (inactive); in the assay with SF-295, 35.5 µM (inactive). Besides, the GI50 in the assay on HT-29 is > 100 µM (inactive); in the assay with EKVX it was 34.2 µM (inactive); with CCRF-CEM, > 100 µM (inactive); with UACC-257, > 100 µM (inactive); in the assay with CAKI-1, > 100 µM (inactive); in the assay on HCT-15, over 100 µM. Also, the GI50 was > 100 µM (inactive) in the assay on SN12C; > 100 µM (inactive) in the assay with MDA-MB-435; 30.3 µM (inactive) in the assay with NCI-H226; 16.6 µM (inactive) in the assay on HOP-62; > 100 µM (inactive) with MCF7; > 100 µM (inactive) in the assay with LOX IMVI. For the same compound, the GI50 with SF-268 was 42.9 µM (inactive); in the assay on OVCAR-8, 47 µM (inactive).

For `COc1cccc(C2CC(=O)c3cccn32)c1` (stereo not given), the GI50 with KM12, in the assay with UACC-62, in the assay with OVCAR-5, in the assay with K562, in the assay with RXF 393 and in the assay on SF-295 was > 100 µM (inactive) in each case. In addition, the GI50 in the assay with HT-29 is > 100 µM (inactive); in the assay on EKVX, > 100 µM (inactive); in the assay on CCRF-CEM, > 100 µM (inactive); in the assay with UACC-257, > 100 µM (inactive); in the assay on CAKI-1, > 100 µM (inactive); in the assay on HCT-15, over 100 µM. The GI50 in the assay with SN12C, in the assay with MDA-MB-435, in the assay on NCI-H226, in the assay on HOP-62, in the assay with MCF7 and in the assay on LOX IMVI was > 100 µM (inactive) in each case. Moreover, the values for the GI50 in the assay with SF-268 and in the assay with OVCAR-8 were 69.3 µM (inactive) and > 100 µM (inactive), respectively.

With `CC(=O)NCCC1CN(C(=O)/C=C\I)c2ccccc21` (stereo not given), the GI50 in the assay with KM12 was 5.7 µM (inactive); in the assay with UACC-62 it was 13 µM (inactive); with OVCAR-5 it was 16.6 µM (inactive); with K562, 3.76 µM (inactive); with RXF 393, 7.29 µM (inactive); with SF-295, 15.3 µM (inactive). Besides, the GI50 is 11.7 µM (inactive) in the assay with HT-29; 17.3 µM (inactive) with EKVX; 3.03 µM (inactive) with CCRF-CEM; 13.8 µM (inactive) in the assay on UACC-257; 1.73 µM (inactive) in the assay on CAKI-1; 7.71 µM in the assay on HCT-15. In addition, the GI50 was 4.97 µM (inactive) in the assay with SN12C; 14.2 µM (inactive) in the assay on MDA-MB-435; 10.7 µM (inactive) in the assay on NCI-H226; 11.2 µM (inactive) in the assay with HOP-62; 2.56 µM (inactive) in the assay on MCF7; 3.08 µM (inactive) with LOX IMVI. The GI50 in the assay on SF-268 is 15.5 µM (inactive); with OVCAR-8, 16.2 µM (inactive).

`COc1ccc(-c2c(=O)[nH]n3c(=S)[nH]c(-c4ccccc4)nc23)cc1OC`: the GI50 in the assay with KM12 was 17.7 µM (inactive); in the assay with UACC-62, 19.1 µM (inactive); in the assay with OVCAR-5, 20.7 µM (inactive); in the assay with K562, 12.9 µM (inactive); with RXF 393, 17.7 µM (inactive); in the assay with SF-295, 20.8 µM (inactive). Further, the GI50 is 21.6 µM (inactive) in the assay on HT-29; 22.5 µM (inactive) with EKVX; 9.1 µM (inactive) with CCRF-CEM; 24 µM (inactive) with UACC-257; 24.3 µM (inactive) in the assay on CAKI-1; 17.3 µM in the assay with HCT-15. Besides, the GI50 is 16.2 µM (inactive) in the assay with SN12C; 18.9 µM (inactive) in the assay on MDA-MB-435; 19.2 µM (inactive) with NCI-H226; 30 µM (inactive) with HOP-62; 15.8 µM (inactive) in the assay on MCF7; 17.2 µM (inactive) with LOX IMVI. The values for the GI50 in the assay with SF-268 and in the assay with OVCAR-8 were 19.4 µM (inactive) and 20.8 µM (inactive), respectively.

Turning to `CC[C@@H]1CC[C@@H]2[C@H](CC[C@]3(C)[C@@H](OC(C)=O)CC[C@@H]23)[C@H]1C(=O)OC`, the GI50 in the assay with KM12 is 22.5 µM (inactive); in the assay with UACC-62, 20.1 µM (inactive); with OVCAR-5, 23.1 µM (inactive); with K562, 20 µM (inactive); in the assay on RXF 393, 24.6 µM (inactive); in the assay with SF-295, 21 µM (inactive). Further, the GI50 in the assay on HT-29 is 25 µM (inactive); in the assay with EKVX, 25.2 µM (inactive); in the assay with CCRF-CEM, 22.1 µM (inactive); with UACC-257 it was 25.3 µM (inactive); with CAKI-1 it was 35.3 µM (inactive); in the assay on HCT-15 it was 22 µM. In addition, the GI50 with SN12C was 25.2 µM (inactive); with MDA-MB-435, 20.9 µM (inactive); with NCI-H226, 18.8 µM (inactive); in the assay with HOP-62 it was 24.9 µM (inactive); in the assay with MCF7, 25 µM (inactive); in the assay with LOX IMVI, 20 µM (inactive). The GI50 in the assay on SF-268 is 23.4 µM (inactive); with OVCAR-8 it was 27.9 µM (inactive).

Consider `COc1cccc(C2c3cc4c(cc3OC(Nc3ccccc3)C2C)OCO4)c1OC` (stereo not given), for which the GI50 is 4.02 µM (inactive) with KM12; 9.55 µM (inactive) in the assay with UACC-62; 44.5 µM (inactive) with OVCAR-5; 2.64 µM (inactive) in the assay with K562; 3.66 µM (inactive) in the assay on RXF 393; 5.55 µM (inactive) in the assay on SF-295. Further, the GI50 is 11.2 µM (inactive) with HT-29; 19.8 µM (inactive) with EKVX; 2.88 µM (inactive) with CCRF-CEM; 35.6 µM (inactive) in the assay on UACC-257; 3.87 µM (inactive) in the assay on CAKI-1; 4.37 µM with HCT-15. Further, the GI50 was 6.4 µM (inactive) in the assay with SN12C; 14.8 µM (inactive) in the assay on MDA-MB-435; 1.84 µM (inactive) with NCI-H226; 15 µM (inactive) in the assay on HOP-62; 6.89 µM (inactive) in the assay with MCF7; 3.77 µM (inactive) in the assay with LOX IMVI. Moreover, the GI50 in the assay on SF-268 was 8.73 µM (inactive); in the assay with OVCAR-8, 16.3 µM (inactive).

Regarding `N#CC1(C#N)NC(c2cccnc2)C(C#N)(C#N)NC1c1cccnc1` (stereo not given), the GI50 was > 100 µM (inactive) in the assay on KM12; > 100 µM (inactive) in the assay on UACC-62; > 100 µM (inactive) with OVCAR-5; > 100 µM (inactive) in the assay on K562; 28.1 µM (inactive) with RXF 393; > 100 µM (inactive) in the assay with SF-295. The GI50 in the assay on HT-29 is > 100 µM (inactive); in the assay on EKVX, > 100 µM (inactive); in the assay on CCRF-CEM it was > 100 µM (inactive); with UACC-257, > 100 µM (inactive); in the assay on CAKI-1, > 100 µM (inactive); with HCT-15, over 100 µM. Also, the GI50 in the assay with SN12C, in the assay with MDA-MB-435, with NCI-H226, in the assay with HOP-62, in the assay with MCF7 and with LOX IMVI was > 100 µM (inactive) in each case. Besides, the GI50 with SF-268 and with OVCAR-8 was > 100 µM (inactive) each time.

On to `C=CCNC(=S)N/C=C(\C#N)C(N)=O`, for which the GI50 with KM12, with UACC-62, with OVCAR-5, with K562, with RXF 393 and in the assay with SF-295 was > 100 µM (inactive) in each case. In addition, the GI50 is > 100 µM (inactive) in the assay on HT-29; > 100 µM (inactive) in the assay on EKVX; > 100 µM (inactive) in the assay with CCRF-CEM; > 100 µM (inactive) in the assay on UACC-257; > 100 µM (inactive) in the assay on CAKI-1; over 100 µM in the assay with HCT-15. The GI50 in the assay with SN12C, in the assay with MDA-MB-435, with NCI-H226, in the assay with HOP-62, in the assay on MCF7 and in the assay on LOX IMVI was > 100 µM (inactive) throughout. Moreover, the GI50 in the assay on SF-268 and in the assay with OVCAR-8 was > 100 µM (inactive) throughout.
